Values joined by “and” are separate entries in the source; they are usually repeats but may differ in a detail not shown here. Identical values can stand only once.
System: TRPV ion channels
Test: TRPV ion channel activity: 2-APB-induced intracellular calcium change in f11 nociceptive sensory cells (Fluo-4-AM)
Format: cell-based, white rats
Conditions: f11 cell lines pre-treated with the compound for 24 hours, then 2-APB
Procedure: To investigate the activity of the compound of Formula 1 isolated in Example 1, pain relief effects were evaluated. The pain relief was confirmed by identifying intracellular calcium levels and signaling pathways.
After f11 nociceptive sensory cell lines in white rats incubated with the compound of Formula 1 to 50% confluence for 24 hours were pretreated, TRPV ion channel activities were measured. The f11 cell lines were treated with 2-APB (2-aminoethoxydiphenyl borate) as a pre-activator for TRPV ion channels, and intracellular calcium changes, which are triggered in response to the 2-APB treatment, were evaluated using a Fluo-4-AM fluorescent dye on a real time basis.

SMILES: CC(C)c1ccc2c(c1)C=C[C@H]1[C@](C)(C(=O)O)CCC[C@]21C [Formula 1, abieta-6,8,11,13-tetraaen-18-oic acid]
- increase in the intracellular calcium level induced by 2-APB (Fluo-4-AM fluorescent dye, real time): strongly inhibited
- intracellular calcium level after 2-APB treatment (tabulated data of FIG. 8, individual values) (Fluo-4-AM, compared with untreated control group): 1.1293 and 1.1714 and 1.1656 and 1.434 and 1.8663 and 1.3893 and 1.1031 and 1.2503 and 1.4131 and 1.3008 and 1.2251 and 1.1536 and 1.125 and 1.1572
